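Values below derive from 48-hour exposures of cells grown in 96-well plates, with endpoints linearly interpolated between the two concentrations bracketing the appropriate inhibition level. The concentration for 50% growth inhibition is given as GI50.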 Calls of active or inactive are those of the source. No stated cut-off is given here; in the data, active = GI50 up to about 1.1 µM and inactive = higher.
What was measured:
Test in all cases: NCI tumour cell line growth inhibition, 48 h
786-0 = tested on: 786-0
A498 = tested on: A498
A549 = tested on: A549
ACHN = tested on: ACHN
CAKI-1 = tested on: CAKI-1
CCRF-CEM = tested on: CCRF-CEM
COLO 205 = tested on: COLO 205
DLD-1 = tested on: DLD-1
DMS-114 = tested on: DMS-114
DMS-273 = tested on: DMS-273
EKVX = tested on: EKVX
HCC 2998 = tested on: HCC 2998
HCT-116 = tested on: HCT-116
HCT-15 = tested on: HCT-15
HL-60 = tested on: HL-60
HOP-18 = tested on: HOP-18
HOP-62 = tested on: HOP-62
HOP-92 = tested on: HOP-92
HT-29 = tested on: HT-29
IGROV-1 = tested on: IGROV-1
K562 = tested on: K562
KM-20L2 = tested on: KM-20L2
KM12 = tested on: KM12
LOX IMVI = tested on: LOX IMVI
LXFL 529 = tested on: LXFL 529
M14 = tested on: M14
M19-MEL = tested on: M19-MEL
MOLT-4 = tested on: MOLT-4
Malme-3M = tested on: Malme-3M
NCI-H226 = tested on: NCI-H226
NCI-H23 = tested on: NCI-H23
NCI-H460 = tested on: NCI-H460
NCI-H522 = tested on: NCI-H522
OVCAR-3 = tested on: OVCAR-3
OVCAR-4 = tested on: OVCAR-4
OVCAR-5 = tested on: OVCAR-5
OVCAR-8 = tested on: OVCAR-8
RPMI-8226 = tested on: RPMI-8226
RXF 393 = tested on: RXF 393
SF-268 = tested on: SF-268
SF-295 = tested on: SF-295
SF-539 = tested on: SF-539
SK-MEL-28 = tested on: SK-MEL-28
SK-MEL-2 = tested on: SK-MEL-2
SK-MEL-5 = tested on: SK-MEL-5
SK-OV-3 = tested on: SK-OV-3
SN12C = tested on: SN12C
SNB-19 = tested on: SNB-19
SNB-75 = tested on: SNB-75
SNB-78 = tested on: SNB-78
SR = tested on: SR
SW-620 = tested on: SW-620
TK-10 = tested on: TK-10
U-251 = tested on: U-251
UACC-257 = tested on: UACC-257
UACC-62 = tested on: UACC-62
UO-31 = tested on: UO-31
XF498 = tested on: XF498

Measured: GI50

CCCCCC(C[N+]1(C)CCOCC1)C(=O)/C=C/c1ccccc1 (stereo not drawn)
inactive: 786-0 2 µM | A498 15.1 µM | A549 22.9 µM | ACHN 23.6 µM | CAKI-1 16.9 µM | CCRF-CEM 2.71 µM | COLO 205 15.7 µM | DLD-1 6.25 µM | DMS-114 9.62 µM | DMS-273 2.91 µM | EKVX 19.9 µM | HCC 2998 18.2 µM | HCT-116 3.41 µM | HL-60 6.89 µM | HOP-18 14.8 µM | HOP-62 30 µM | HOP-92 18.7 µM | HT-29 5.31 µM | IGROV-1 19.4 µM | K562 3.34 µM | KM-20L2 15.9 µM | KM12 2.8 µM | LOX IMVI 1.76 µM | LXFL 529 3.18 µM | M14 11.1 µM | M19-MEL 14.6 µM | MOLT-4 3.03 µM | Malme-3M 16.9 µM | NCI-H226 10.8 µM | NCI-H23 14.7 µM | NCI-H460 16.4 µM | NCI-H522 3.03 µM | OVCAR-3 14.4 µM | OVCAR-4 11.2 µM | OVCAR-5 17.4 µM | OVCAR-8 12.7 µM | RPMI-8226 1.54 µM | RXF 393 14.4 µM | SF-268 9.64 µM | SF-295 7.74 µM | SF-539 9.79 µM | SK-MEL-28 16.2 µM | SK-MEL-2 15.2 µM | SK-MEL-5 13.4 µM | SK-OV-3 46.5 µM | SN12C 13.5 µM | SNB-19 12 µM | SNB-75 7.33 µM | SNB-78 14.1 µM | SR 2.91 µM | SW-620 2.62 µM | TK-10 20.3 µM | U-251 7.67 µM | UACC-257 13.4 µM | UACC-62 9.59 µM | UO-31 16.1 µM | XF498 14.4 µM
8.34 µM: HCT-15

CN(C)C=[N+]=[N-]
active: NCI-H522 0.17 µM
inactive: 786-0 > 100 µM | A498 > 100 µM | A549 > 100 µM | ACHN > 100 µM | CAKI-1 43 µM | COLO 205 > 100 µM | DLD-1 > 100 µM | DMS-114 > 100 µM | DMS-273 > 100 µM | EKVX > 100 µM | HCC 2998 > 100 µM | HCT-116 > 100 µM | HL-60 > 100 µM | HOP-18 > 100 µM | HOP-62 > 100 µM | HOP-92 > 100 µM | HT-29 > 100 µM | IGROV-1 > 100 µM | K562 > 100 µM | KM-20L2 > 100 µM | KM12 > 100 µM | LXFL 529 > 100 µM | M14 > 100 µM | M19-MEL > 100 µM | MOLT-4 > 100 µM | Malme-3M > 100 µM | NCI-H226 > 100 µM | NCI-H23 > 100 µM | NCI-H460 > 100 µM | OVCAR-3 > 100 µM | OVCAR-4 > 100 µM | OVCAR-5 > 100 µM | OVCAR-8 > 100 µM | RPMI-8226 > 100 µM | RXF 393 > 100 µM | SF-268 > 100 µM | SF-295 > 100 µM | SF-539 > 100 µM | SK-MEL-2 > 100 µM | SK-MEL-5 > 100 µM | SK-OV-3 > 100 µM | SN12C > 100 µM | SNB-19 > 100 µM | SNB-75 > 100 µM | SNB-78 > 100 µM | SR > 100 µM | SW-620 > 100 µM | TK-10 > 100 µM | U-251 > 100 µM | UACC-257 > 100 µM | UACC-62 > 100 µM | UO-31 > 100 µM | XF498 > 100 µM
> 100 µM: HCT-15
